Reference: PMC4575030 (PLoS ONE, 2015)
Counter-ions that a name gives are not always drawn. Like-named read-outs stand apart in the source and are kept apart here.

Experiments:
[1] = test system: naïve rats; assay: Open field activity (basic movement); format: in vivo, rat; conditions: formalin-naïve rats
Protocol: Basic movement was measured using the Photobeam Activity System Open Field (San Diego Instruments, San Diego, CA) equipped with 48 infrared photocell emitters and detectors. Photobeams used to measure vertical movement were positioned 14 cm above the test chamber floor. Each testing chamber was made of Plexiglas (41 x 41 x 36 cm) and was devoid of any bedding. At the beginning of the test session, each animal was placed in a separate testing chamber and the room lights were turned off. Basic movement was measured for 30 minutes.

[2] = Terminal plasma and brain concentrations after behavioral testing; format: in vivo, rat
[3] = molecular target: rat Nav1.7 (Rattus norvegicus, UniProt O08562); assay: PatchXpress automated electrophysiology on rat Nav1.7; format: cell-based; conditions: 20%-inactivated rat Nav1.7
[4] = test system: rat formalin model of pain; assay: Formalin test (formalin-induced flinching); format: in vivo; conditions: for Decrease in formalin flinching: phase 2 (10 to 40 min), percent of vehicle; for Reduction in formalin flinching, result in words: rat formalin test
Protocol: Formalin-induced flinching was measured using the Automated Nociception Analyzer (ANA) (University Anesthesia Research & Development Group, La Jolla, CA). Rats were habituated to the ANA testing chambers for at least 30 minutes prior to the formalin injection. At test time, each rat was removed from the testing chamber and gently wrapped in a towel. 50 μL of 2.5% formalin solution was injected into the dorsal surface of the left hind paw with a 30 gauge needle. A small metal band was then affixed to the plantar side of the injected paw with one drop of super glue. The animal was then unwrapped from the towel, placed back in the testing chamber, and flinching behavior was scored for 40 minutes by the ANA software. While minimized, non-painful paw movement from the natural activity of an alert animal could be erroneously binned by the automated recording system as a nociceptive behavior. These behaviors are not subtracted from the flinching total. […] Total flinching behavior was used as the endpoint of the assay.

[5] = In vitro plasma protein binding; format: in vitro ADME
[6] = molecular target: T1, hNav1.7 (Homo sapiens, UniProt Q15858); assay: Manual whole cell patch clamp electrophysiology on HEK 293 cells stably expressing hNav1.7; format: cell-based
T1 construct: expressed in transfected cells; host or cells: HEK 293
Protocol: Except as indicated, recordings to determine potency of aminotriazines on Nav1.7 were made with manual electrophysiology. HEK 293 cells stably expressing hNav1.7 were voltage-clamped using the whole cell patch clamp configuration. Cells were plated onto 35 mm culture dishes 0–24 hours before recording, and tissue culture medium was exchanged for external solution containing (in mM) 140 NaCl, 5 KCl, 2 CaCl2, 1 MgCl2, 10 HEPES, 11 glucose, pH 7.4 with NaOH. Patch pipettes were pulled from borosilicate glass capillaries (1.2 mm outer diameter, World Precision Instruments, Sarasota, FL) with a P-97 pipette puller (Sutter Instruments, Novato, CA) and backfilled with internal solution containing (in mM) 62.5 CsCl, 75 CsF, 2.5 MgCl2, 5 EGTA, 10 HEPES, pH 7.25 with CsOH. Pipette resistances were between 1.5 and 2.0 MΩ. After formation of the whole-cell configuration, cells were lifted off the dish bottom with the patch pipette and positioned directly in front of a microarray of glass tubes (each tube internal diameter ~ 1 mm) with each tube containing continuously flowing control or test solution. A full current-voltage relation was recorded from each cell, and cells with poor space clamp as indicated by discontinuous I-V relation or by prolonged or nonexponential current kinetics were discarded. Solution switching was accomplished by moving the microarray with computer control via an RSC-160 rapid solution exchanger (Bio-Logic, Claix, France). Currents were recorded with an Axopatch 200B patch-clamp amplifier driven by pCLAMP software, filtered (4-pole Bessel) at 5 kHz during acquisition, and digitized at 20 kHz using pClamp9.2. Whole cell capacitance and series resistance were compensated at 0%- 80%, and reported voltages were uncorrected for liquid junction potentials. Recordings were made at room temperature. Concentration-response curves were taken by measuring inward Nav1.7 current every five to six seconds with a 10 ms to 20 ms depolarization to near the peak of the current-voltage relation, before and after steady-state inhibition by a given concentration of aminotriazine. For concentration response curves on partially inactivated channels, holding voltage was set to produce 20% fractional inactivation. […] Occasionally two compound concentrations were tested in parallel without resetting the voltage, if inhibition was rapid and the current level steady. […] Concentration response curves on non-inactivated channels generally were taken with multiple concentrations added in series without washoff of the previous concentration.

[7] = test system: rat spinal nerve ligation model; assay: Tactile allodynia following spinal nerve ligation (SNL); format: in vivo; conditions: gabapentin positive control, 75 min after dosing; statistically significant
Excerpt: A decrease in tactile response threshold, using calibrated von Frey filaments (Stoelting Co., Wood Dale, IL), was used as a measure of tactile allodynia following spinal nerve ligation (SNL). Prior to surgery, each animal underwent baseline testing to determine suitability for the assay. Briefly, animals were placed on a raised platform with a grid meshed floor. The distance between the mesh was ¼”. Once acclimated, each animal received a series of trials according to the up-down method described by Dixon. Animals showing a response to less than 4 g were deemed already sensitive to the stimulus and were removed. A maximal fiber of 15 g was employed as a cut-off threshold. Surgery was then performed with a procedure slightly modified by that reported by Kim and Chung. Briefly, the left L5 spinal nerve was carefully isolated from the surrounding tissue. Using 5–0 silk suture, a tight ligature was placed around L5 nerve. Muscle and skin were then closed using 4–0 absorbable suture and wound clips. Animals were allowed to recover and were carefully monitored for seven days to ensure proper healing and ensure there was no mutilation of the affected limb. On day 21 post-surgery, animals were again tested to ensure the development of tactile allodynia. […] Animals were then randomized into groups and dosed with the test compound, gabapentin, or vehicle and assessed as stated above. […]

[8] = test system: rat CFA model of pain; assay: CFA-induced thermal hyperalgesia; format: in vivo; conditions: morphine s.c., 30 min after dosing, positive control
Protocol: CFA-induced thermal hyperalgesia was measured using the Thermal Plantar Analgesia Instrument (Ugo Basile, Italy). Intensity of the radiant heat stimulus was adjusted to achieve a withdrawal latency of approximately 13 s in naïve animals. On test day one, animals were placed on the apparatus in their individual testing chambers with an absorbent towel at the bottom and allowed to habituate for at least 30 minutes. The towel was then removed and animals were allowed to acclimate for at least 15 minutes more. After habituation, animals were placed back in their home cages until the following day. On test day two, animals were placed back in the testing chambers until calm (typically 20 minutes). The thermal device was positioned on the center of the left hind paw and the test was started. The time for the animal to withdraw its paw from the thermal stimulus was recorded. A cut-off of 30 seconds was used to prevent tissue damage. Few trials went past 20 seconds and none past 25 seconds. This procedure was repeated for three trials per animal, each separated by at least 5 min, and trials were averaged to determine baseline withdrawal latencies. After determining baseline measures, each animal received an injection of 50 μl CFA (1:1 emulsion with PBS, Sigma, St. Louis, MO) into the plantar side of the left hind paw with a 26 gauge needle. Animals were then placed back in their home cages until the following day. Approximately 24 h after the CFA injection, withdrawal latencies to heat were determined as described above. Animals were then randomized based on their Post-CFA baseline score and treated with the test compound or vehicle. […] The experimenter was blinded to drug treatment during this assay. Percent return to baseline latency was used as the endpoint of the assay.

T1 sequence (Q15858 whole entry): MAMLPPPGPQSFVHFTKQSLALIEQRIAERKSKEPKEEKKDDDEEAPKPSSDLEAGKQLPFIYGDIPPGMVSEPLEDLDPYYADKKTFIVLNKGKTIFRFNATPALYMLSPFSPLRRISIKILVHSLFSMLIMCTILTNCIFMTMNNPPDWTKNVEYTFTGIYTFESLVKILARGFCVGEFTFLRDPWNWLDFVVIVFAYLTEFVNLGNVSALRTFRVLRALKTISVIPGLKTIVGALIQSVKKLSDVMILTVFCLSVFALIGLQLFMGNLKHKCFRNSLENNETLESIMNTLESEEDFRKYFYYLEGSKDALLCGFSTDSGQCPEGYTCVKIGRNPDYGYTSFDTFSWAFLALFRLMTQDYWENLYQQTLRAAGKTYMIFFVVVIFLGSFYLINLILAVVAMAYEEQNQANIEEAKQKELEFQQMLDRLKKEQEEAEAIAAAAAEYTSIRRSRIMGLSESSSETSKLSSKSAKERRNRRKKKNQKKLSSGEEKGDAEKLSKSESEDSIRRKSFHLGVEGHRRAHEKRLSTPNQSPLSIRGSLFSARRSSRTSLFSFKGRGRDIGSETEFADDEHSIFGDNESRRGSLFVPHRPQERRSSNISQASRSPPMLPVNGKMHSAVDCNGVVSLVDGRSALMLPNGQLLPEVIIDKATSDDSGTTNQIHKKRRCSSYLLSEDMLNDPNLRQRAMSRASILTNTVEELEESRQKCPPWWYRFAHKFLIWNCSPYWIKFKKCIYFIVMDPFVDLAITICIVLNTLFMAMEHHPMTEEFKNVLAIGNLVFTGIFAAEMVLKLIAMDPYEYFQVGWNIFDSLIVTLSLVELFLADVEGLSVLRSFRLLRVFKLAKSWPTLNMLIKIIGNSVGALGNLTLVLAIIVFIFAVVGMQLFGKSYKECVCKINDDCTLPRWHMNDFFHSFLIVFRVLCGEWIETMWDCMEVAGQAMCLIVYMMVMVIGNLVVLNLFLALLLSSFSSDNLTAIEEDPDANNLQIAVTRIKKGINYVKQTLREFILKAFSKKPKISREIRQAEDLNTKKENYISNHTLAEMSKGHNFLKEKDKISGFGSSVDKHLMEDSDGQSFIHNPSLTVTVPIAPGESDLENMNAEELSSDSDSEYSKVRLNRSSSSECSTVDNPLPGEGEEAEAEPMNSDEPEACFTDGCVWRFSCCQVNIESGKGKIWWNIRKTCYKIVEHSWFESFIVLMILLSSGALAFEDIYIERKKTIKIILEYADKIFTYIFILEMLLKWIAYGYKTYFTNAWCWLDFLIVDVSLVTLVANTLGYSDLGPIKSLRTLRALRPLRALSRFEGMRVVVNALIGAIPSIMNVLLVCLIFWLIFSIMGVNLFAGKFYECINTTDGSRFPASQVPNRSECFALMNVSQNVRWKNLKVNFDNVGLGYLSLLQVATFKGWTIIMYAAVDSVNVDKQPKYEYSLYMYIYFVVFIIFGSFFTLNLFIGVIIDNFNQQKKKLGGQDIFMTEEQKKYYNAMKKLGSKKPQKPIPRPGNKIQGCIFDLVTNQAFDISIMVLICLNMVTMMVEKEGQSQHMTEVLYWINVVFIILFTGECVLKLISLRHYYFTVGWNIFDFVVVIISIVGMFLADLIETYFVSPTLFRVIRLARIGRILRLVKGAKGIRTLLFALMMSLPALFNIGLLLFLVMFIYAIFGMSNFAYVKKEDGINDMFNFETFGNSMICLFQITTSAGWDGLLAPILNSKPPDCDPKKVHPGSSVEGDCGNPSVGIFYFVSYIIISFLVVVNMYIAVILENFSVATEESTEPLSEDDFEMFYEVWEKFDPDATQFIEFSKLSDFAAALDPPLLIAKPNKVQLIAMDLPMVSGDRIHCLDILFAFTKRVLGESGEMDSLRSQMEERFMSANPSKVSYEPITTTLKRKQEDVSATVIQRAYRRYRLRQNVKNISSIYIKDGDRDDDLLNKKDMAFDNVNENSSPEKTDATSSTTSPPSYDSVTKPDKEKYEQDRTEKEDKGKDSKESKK
rat Nav1.7, sequence (O08562 whole entry): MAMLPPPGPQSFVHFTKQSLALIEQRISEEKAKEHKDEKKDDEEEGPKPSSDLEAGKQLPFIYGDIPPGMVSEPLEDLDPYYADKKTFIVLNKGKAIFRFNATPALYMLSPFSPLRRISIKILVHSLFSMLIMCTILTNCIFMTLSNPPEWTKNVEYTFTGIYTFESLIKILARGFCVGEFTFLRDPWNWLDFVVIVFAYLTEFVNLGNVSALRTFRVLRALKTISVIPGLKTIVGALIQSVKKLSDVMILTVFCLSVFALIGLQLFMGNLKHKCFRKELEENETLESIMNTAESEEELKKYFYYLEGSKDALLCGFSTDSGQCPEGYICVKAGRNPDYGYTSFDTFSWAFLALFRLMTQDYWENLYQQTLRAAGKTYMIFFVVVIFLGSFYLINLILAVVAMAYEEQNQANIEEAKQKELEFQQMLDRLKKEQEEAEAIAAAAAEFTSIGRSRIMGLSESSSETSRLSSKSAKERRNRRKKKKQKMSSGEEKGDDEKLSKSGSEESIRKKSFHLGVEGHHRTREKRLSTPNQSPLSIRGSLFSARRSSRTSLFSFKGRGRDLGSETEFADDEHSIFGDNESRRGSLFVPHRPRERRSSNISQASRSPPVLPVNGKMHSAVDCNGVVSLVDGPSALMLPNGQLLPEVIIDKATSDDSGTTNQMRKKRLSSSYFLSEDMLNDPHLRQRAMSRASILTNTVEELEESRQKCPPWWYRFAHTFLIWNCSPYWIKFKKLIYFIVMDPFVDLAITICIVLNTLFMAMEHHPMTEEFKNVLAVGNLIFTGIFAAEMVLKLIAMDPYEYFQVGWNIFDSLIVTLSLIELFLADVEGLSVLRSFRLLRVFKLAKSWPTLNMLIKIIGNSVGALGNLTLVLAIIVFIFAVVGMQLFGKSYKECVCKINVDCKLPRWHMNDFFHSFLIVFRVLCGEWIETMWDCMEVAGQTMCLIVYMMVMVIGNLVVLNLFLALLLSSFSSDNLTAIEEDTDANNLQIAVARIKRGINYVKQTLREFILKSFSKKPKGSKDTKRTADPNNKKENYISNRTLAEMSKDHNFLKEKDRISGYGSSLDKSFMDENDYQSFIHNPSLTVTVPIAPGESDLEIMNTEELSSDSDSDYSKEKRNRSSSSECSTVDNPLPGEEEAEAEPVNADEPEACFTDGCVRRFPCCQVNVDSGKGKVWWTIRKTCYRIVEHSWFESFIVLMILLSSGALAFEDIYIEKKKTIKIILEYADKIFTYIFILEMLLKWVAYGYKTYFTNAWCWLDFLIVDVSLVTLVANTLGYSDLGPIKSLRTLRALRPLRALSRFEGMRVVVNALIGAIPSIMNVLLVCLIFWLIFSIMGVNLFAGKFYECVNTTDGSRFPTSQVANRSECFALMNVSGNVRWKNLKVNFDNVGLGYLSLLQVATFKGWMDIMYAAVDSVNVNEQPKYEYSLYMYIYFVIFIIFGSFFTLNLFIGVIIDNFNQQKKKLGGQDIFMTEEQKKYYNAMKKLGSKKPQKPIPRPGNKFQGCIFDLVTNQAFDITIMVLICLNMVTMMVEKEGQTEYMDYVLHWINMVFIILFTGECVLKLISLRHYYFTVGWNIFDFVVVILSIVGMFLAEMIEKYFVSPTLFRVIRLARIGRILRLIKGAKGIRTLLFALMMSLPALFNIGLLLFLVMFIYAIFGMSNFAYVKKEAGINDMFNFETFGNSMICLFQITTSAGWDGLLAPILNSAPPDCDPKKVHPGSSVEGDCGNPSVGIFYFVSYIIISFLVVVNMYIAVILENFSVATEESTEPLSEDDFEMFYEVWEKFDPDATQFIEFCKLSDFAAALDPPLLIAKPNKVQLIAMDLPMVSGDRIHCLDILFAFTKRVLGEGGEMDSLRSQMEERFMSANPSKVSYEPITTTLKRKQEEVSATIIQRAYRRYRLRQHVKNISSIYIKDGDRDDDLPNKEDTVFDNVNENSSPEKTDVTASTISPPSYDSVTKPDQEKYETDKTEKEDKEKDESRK

CC(=O)Nc1cccc(Nc2ncnc(N3CCc4cc(OC(F)(F)F)ccc4C3)n2)c1 [Compound F, N-(3-((4-(6-(trifluoromethoxy)-3,4-dihydro-2(1H)-isoquinolinyl)-1,3,5-triazin-2-yl)amino)phenyl)acetamide]
Decrease in basic movement ([1]; 10 mg/kg p.o., negative value = increase): 11% | Decrease in basic movement ([1]; 30 mg/kg p.o.): 33% | Decrease in basic movement ([1]; 100 mg/kg p.o.): 54% | Kp ([2]; brain and plasma, rat, ratio of concentrations measured following the formalin test): 0.33 | Effective [plasma] ([2]; mean terminal plasma concentration at the lowest effective dose in the rat formalin test): 3.70 µM | IC50 [3]: 1000 nM | Decrease in formalin flinching ([4]; 10 mg/kg p.o.): 0% | Decrease in formalin flinching ([4]; 30 mg/kg p.o.): 35% | Decrease in formalin flinching ([4]; 100 mg/kg p.o.): 67% | Analgesic efficacy ([4]; rat formalin model, significant (p < 0.05) decrease in flinching at a dose without a reduction in open field movement that obviated the result): Yes | Reduction in formalin flinching, result in words [4]: statistically significant and plasma concentration-dependent reduction in formalin flinching | fraction unbound [5]: 0.001 | IC50 ([6]; IC50 (μM) 20%-inactivated, 20%-inactivated human Nav1.7, holding voltage set to produce 20% fractional inactivation): 0.18 µM | IC50 ([6]; non-inactivated human Nav1.7, holding voltage -140 mV or occasionally -120 mV, peak concentration tested 10 μM, read-out: IC50 (μM) Non-inactivated): > 10 µM

NCC1(CC(=O)O)CCCCC1 [gabapentin, reference compound]
Reversal of tactile allodynia compared to the vehicle group [7]: 44%

CN1CC[C@]23c4c5ccc(O)c4O[C@H]2[C@@H](O)C=C[C@H]3[C@H]1C5 [morphine, Morphine sulfate, reference compound]
Average reversal of thermal hyperalgesia compared to baseline [8]: 87% | Total reduction in phase 2 flinching as percent of vehicle ([4]; morphine 2 mg/kg s.c., positive control): 68% | Reduction in formalin flinching, result in words [4]: statistically significant decrease in flinching compared to the vehicle group
